Marks after values point to notes of the source that are not given here.

Log10 reduction data for five molecules are collected here from patent publication US20020102246A1, “Antimicrobial compositions” (Novozymes A/S, priority 2000, published 2002).

This test has as its system Pseudomonas putida (ATCC 12633). The experiment in a line: Antimicrobial activity of mediators oxidized by Coprinus cinereus peroxidase (rCiP). It is filed as cell-based. The settings on record: 50 μM mediator, rCiP 4 POXU/L, 0.5 mM hydrogen peroxide, 20 minutes at 40° C., pH 7; 6 corresponds to a total kill. As for the experimental part:
Antibacterial activity of 4-aminophenol, 4-hydroxy-4′-dimethylamino azobenzene, 4,4′-biphenol, 10-methylphenoxazine and 4,4′-dihydroxydiphenyl ether was evaluated when oxidized by Coprinus cinereus peroxidase (rCiP) (available from Novozymes A/S).
Antimicrobial activity was determined on Pseudomonas putida (ATCC 12633), the cells were grown in Tryptone Soy Broth, TSB (Oxoid CM129) overnight, washed two times in sterile 0.9% saline and suspended in 50 mM HEPES buffer (Sigma H3375) at pH 7 to a cell concentration of approximately 10^6 CFU/ml. The mediators were added to the cell suspension to a final concentration of 50 μM, rCiP was added to the concentration 4 POXU/L and the enzyme reaction was started by addition of hydrogen peroxide to a final concentration of 0.5 mM. Antimicrobial activity was determined after 20 minutes incubation at 40° C., by a 10-fold dilution of the cell suspension into TSB substrate and incubation overnight. Antimicrobial activity was determined as log10 reduction, thus a log10 reduction of 2 corresponds to a kill of 99%.

Regarding `CN1c2ccccc2Oc2ccccc21` [10-Methylphenoxazine], the Log10 reduction was found to be 3.

In the case of `Oc1ccc(Oc2ccc(O)cc2)cc1` [4,4′-Dihydroxyphenyl ether, 4,4′-Dihydroxydiphenyl ether], the Log10 reduction was determined as 2.5.

`Oc1ccc(-c2ccc(O)cc2)cc1` [4,4′-Biphenol, 97%, 4,4′-Biphenol] showed a Log10 reduction of 1.5.

`Nc1ccc(O)cc1` [4-aminophenol] came in with a Log10 reduction of 2.5.

As for `CN(C)c1ccc(N=Nc2ccc(O)cc2)cc1` [4-Hydroxy-4′-dimethylamino azobenzene], the Log10 reduction is on record as 6*.
